{"source": "patent US20240108740A1", "about": "“THERAPEUTIC COMPOSITIONS INCLUDING SPN10 AND USES THEREOF” (Stealth BioTherapeutics Inc., priority 2022, published 2024)", "key": {"Guinea pig hearts": {"test_system": "Guinea pig hearts", "assay": "Example 14: ischemia-reperfusion-induced myocardial stunning", "method": "Guinea pig hearts will be rapidly isolated, and the aorta will be cannulated in situ and perfused in a retrograde fashion with an oxygenated Krebs-Henseleit at constant pressure (40 cm H2O). Contractile force will be measured with a small hook inserted into the apex of the left ventricle and a silk ligature connected to a force-displacement transducer. Coronary flow will be measured by timing the collection of pulmonary artery effluent.\nHearts will be perfused with peptide conjugates (1-100 nM); aromatic-cationic peptides (an equivalent molar dose of aromatic-cationic peptide based on the concentration of the aromatic-cationic peptide administered in the peptide conjugate treatment group); SPN10(s) (an equivalent molar dose of SPN10 based on the concentration of SPN10 administered in the peptide conjugate treatment group); or SPN10(s) in combination with aromatic-cationic peptides (e.g., an equivalent molar dose of SPN10 based on the concentration of SPN10 administered in the peptide conjugate treatment group and an equivalent molar dose of aromatic-cationic peptide based on the concentration of aromatic-cationic peptide administered in the peptide conjugate treatment group) for 30 minutes and then subjected to 30 minutes of global ischemia. Reperfusion will […] be performed using perfusion buffer lacking both peptide conjugates and SPN10(s) (with or without aromatic-cationic peptides)."}, "[1]": {"test_system": "acute myocardial infarction", "assay": "Infarct size at revascularization in acute myocardial infarction patients", "assay_type": "in vivo, human", "conditions": "IV at the time of reperfusion", "from_the_text": "Men and women, 18 years of age or older, who present after the onset of chest pain, and for whom the clinical decision is made to treat with a revascularization procedure (e.g., PCI or thrombolytics) will be eligible for enrollment. […] The diagnosis is made therefore purely on the basis of symptoms, clinical examination and ECG changes. […] The patient often has a history of having experienced angina, but the ECG at the time of the suspected attack may show no abnormality at all. […] Left ventricular and coronary angiography will be performed with the use of standard techniques, just before revascularization. Revascularization will be performed by PCI with the use of direct stenting. […] The primary end point is the size of the infarct as assessed by measurements of cardiac biomarkers. […] Coronary biomarkers will be measured in each patient. For example, the area under the curve (AUC) (expressed in arbitrary units) for creatine kinase and troponin I release (Beckman kit) may be measured in each patient by computerized planimetry. The principal secondary end point is the size of the infarct as measured by the area of delayed hyperenhancement that is seen on cardiac magnetic resonance imaging (MRI), assessed on day 5 after infarction. […] The images are analyzed in short axis slices covering the entire left ventricle. […]"}, "Caco-2 cells": {"test_system": "Caco-2 cells", "assay": "Example 25: mitochondrial membrane potential after t-BHP (TMRM, CLSM)", "assay_type": "cell-based, human", "conditions": "t-BHP 1 mM, 4 hours", "method": "Caco-2 cells will be treated with t-BHP (1 mM) alone or in the presence of peptide conjugates (0.1 μM); aromatic-cationic peptides (an equivalent molar dose of aromatic-cationic peptide based on the concentration of the aromatic-cationic peptide administered in the peptide conjugate treatment group); SPN10(s) (an equivalent molar dose of SPN10 based on the concentration of SPN10 administered in the peptide conjugate treatment group); or SPN10(s) in combination with aromatic-cationic peptides (e.g., an equivalent molar dose of SPN10 based on the concentration of SPN10 administered in the peptide conjugate treatment group and an equivalent molar dose of aromatic-cationic peptide based on the concentration of aromatic-cationic peptide administered in the peptide conjugate treatment group) for 4 hours, and then incubated with TMRM and examined under CLSM."}, "SH-SY5Y cells": {"test_system": "SH-SY5Y cells", "assay": "Example 27: apoptosis caused by oxidative stress (Hoechst 33342)", "assay_type": "cell-based", "conditions": "0.025 mM t-BHP, 24 hours", "method": "SH-SY5Y cells will be grown in 96-well plates and treated with t-BHP (0.025 mM) alone or in the presence of peptide conjugates, aromatic-cationic peptides, or SPN10(s) with or without aromatic-cationic peptides at 37° C. for 24 hours. All treatments will be carried out in quadruplicate. Cells will then be stained with 2 mg/mL Hoechst 33342 for 20 minutes, fixed with 4% paraformaldehyde, and imaged using a Zeiss fluorescent microscope (Axiovert 200M) equipped with the Zeiss Acroplan 20× objective. Nuclear morphology will be evaluated using an excitation wavelength of […] and a longpass filter of 400 nm for emission. All images will be processed and analyzed using MetaMorph software (Universal Imaging Corp., West Chester, PA, U.S.A.). Uniformly stained nuclei will be scored as healthy, viable neurons. Cells with condensed or fragmented nuclei will be scored as apoptotic."}}, "note": "Residues, ends and D or L forms follow the SMILES beside them."}
{"smiles": "N=C(N)NCCC[C@H](NC(=O)[C@@H](N)Cc1c[nH]c2ccccc12)C(=O)N[C@@H](Cc1c[nH]c2ccccc12)C(=O)N[C@@H](CCCCN)C(N)=O", "note": "[SPN10, H-L-Trp-L-Arg-L-Trp-L-Lys-NH2] (H-WRWK-NH2)", "values": [{"measurement": "cardiac stunning", "setting": "Guinea pig hearts", "result": "complete inhibition of cardiac stunning"}, {"measurement": "coronary flow during reperfusion", "setting": "Guinea pig hearts", "result": "well-sustained throughout the reperfusion period"}, {"measurement": "heart rate", "setting": "Guinea pig hearts", "result": "no decrease in heart rate"}, {"measurement": "contractile force during the reperfusion period", "setting": "Guinea pig hearts; 30 minutes perfusion, 30 minutes global ischemia", "result": "improved compared to untreated controls"}, {"measurement": "infarct size versus placebo", "setting": "[1]", "result": "smaller infarct"}, {"measurement": "mitochondrial depolarization caused by t-BHP", "setting": "Caco-2 cells", "result": "protect against mitochondrial depolarization"}, {"measurement": "apoptosis induced by t-BHP", "setting": "SH-SY5Y cells", "result": "prevent SH-SY5Y cell apoptosis"}]}
